# Test results from patent US9708368B2, “Linear peptide antibiotics” (priority 2012, dated 2017).
# Square brackets hold non-standard residues; d marks the D form. Peptide text beside a SMILES is read from it. * marks the point of attachment. ξ: configuration not given here. boroAla((+)-pinanediol) = C[C@H](N*)B1O[C@@H]2C[C@@H]3C[C@@H](C3(C)C)[C@]2(C)O1; Biphenylcarbonyl(4'-Bu) = CCCCc1ccc(-c2ccc(C(=O)*)cc2)cc1; X1 = C[C@H](N*)B1OC2C[C@@H]3C[C@@H](C3(C)C)[C@]2(C)O1; Benzoyl(4-(4-Cl-Ph)) = O=C(c1ccc(-c2ccc(Cl)cc2)cc1)*; Benzoyl(4-octyl) = CCCCCCCCc1ccc(C(=O)*)cc1; Dopa = N[C@@H](Cc1ccc(O)c(O)c1)C(=O)O; X19 = O=C(CCCCC12CC3CC(CC(C3)C1)C2)*; Gly(cPr) = N[C@H](C(=O)O)C1CC1; Thr(3ξ) = CC(O)[C@H](N)C(=O)O; NMeV = CN[C@H](C(=O)O)C(C)C; boroAla = C[C@H](N*)B(O)O; Dab = NCC[C@H](N)C(=O)O; Dap = NC[C@H](N)C(=O)O; βAla = NCCC(=O)O
# Experiments:
# [1] = tested on: methicillin resistant Staphylococcus aureus (MRSA) strain USA300 (NRS384); conditions: Method B, 35° C., 22 hours
# [2] = tested on: Escherichia coli strain MC4100 IMP-4213, which harbors an LptD mutation; conditions: Method B; E. coli MC4100 IMP-4213 (LptD mutation); 35° C., 22 hours
# Summary of the method: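 Two-fold serial dilutions of compound inoculated at final OD600 0.0005, incubated static at 35 °C for 22 h, and growth read visually.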
# [3] = biological target: S. aureus SPase (Staphylococcus aureus, UniProt P0A070); test: biochemical
# S. aureus SPase, sequence (P0A070 whole entry): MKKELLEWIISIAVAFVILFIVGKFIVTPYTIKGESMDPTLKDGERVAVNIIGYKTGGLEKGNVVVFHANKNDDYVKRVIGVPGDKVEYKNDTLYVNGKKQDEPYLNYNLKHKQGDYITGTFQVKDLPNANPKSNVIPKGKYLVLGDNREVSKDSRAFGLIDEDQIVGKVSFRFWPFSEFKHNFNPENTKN
# [4] = biological target: E. coli SPase (Escherichia coli, UniProt P00803); test: Biochemical SPase activity assay (fluorogenic peptide substrate), E. coli enzyme
# E. coli SPase, sequence (P00803 whole entry): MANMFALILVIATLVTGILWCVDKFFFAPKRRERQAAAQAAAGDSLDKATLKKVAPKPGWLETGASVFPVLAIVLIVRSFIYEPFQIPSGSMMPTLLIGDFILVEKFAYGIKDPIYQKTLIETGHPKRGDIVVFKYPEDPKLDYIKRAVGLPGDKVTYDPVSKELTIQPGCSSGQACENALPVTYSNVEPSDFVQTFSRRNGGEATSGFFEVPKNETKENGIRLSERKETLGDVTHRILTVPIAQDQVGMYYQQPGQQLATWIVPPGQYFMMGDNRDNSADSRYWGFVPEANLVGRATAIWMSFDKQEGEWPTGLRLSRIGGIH
SMILES,MIC (μg/mL) S. aureus [1],MIC (μg/mL) E. coli [2],IC50 [3],IC50 [4]
CCCCc1ccc(-c2ccc(C(=O)NCCC(=O)N[C@@H](CCCCN)C(=O)N[C@@H](CCCCN)C(=O)N[C@@H](C)C(=O)N[C@@H](CCCCN)C(=O)N[C@@H](C)B3OC4C[C@@H]5C[C@@H](C5(C)C)[C@]4(C)O3)cc2)cc1 (some centres unmarked) [Compound 207] ({Biphenylcarbonyl(4'-Bu)-βAla}-KKAK-X1),0.099 µg/mL,2 µg/mL,13 nM,87 nM
CCCCc1ccc(-c2ccc(C(=O)N[C@@H](CCCCN)C(=O)N[C@@H](CCCCN)C(=O)N[C@@H](C)C(=O)N[C@@H](CC(C)C)C(=O)N[C@@H](C)B3OC4C[C@@H]5C[C@@H](C5(C)C)[C@]4(C)O3)cc2)cc1 (some centres unmarked) [Compound 146] ({Biphenylcarbonyl(4'-Bu)}-KKAL-X1),0.4 µg/mL,0.25 µg/mL,160 nM,12 nM
CCCCc1ccc(-c2ccc(C(=O)N[C@@H](CCN)C(=O)N[C@@H](Cc3ccc(O)c(O)c3)C(=O)N[C@@H](C)C(=O)N[C@@H](Cc3ccc(O)c(O)c3)C(=O)N[C@@H](C)B3OC4C[C@@H]5C[C@@H](C5(C)C)[C@]4(C)O3)cc2)cc1 (some centres unmarked) [Compound 189] ({Biphenylcarbonyl(4'-Bu)}-[Dab][Dopa]A[Dopa]-X1),>64 µg/mL,64 µg/mL,7700 nM,430 nM
CCCCc1ccc(-c2ccc(C(=O)N[C@H](CO)C(=O)N[C@H](C)C(=O)NCC(=O)N(C)[C@H](C(=O)N[C@@H](C)C(=O)N[C@@H](CC(N)=O)C(=O)N[C@@H](C)B3OC4C[C@@H]5C[C@@H](C5(C)C)[C@]4(C)O3)C(C)C)cc2)cc1 (some centres unmarked) [Compound 230] ({Biphenylcarbonyl(4'-Bu)}-[dS][dA]G[NMeV]AN-X1),2 µg/mL,20 µg/mL,150 nM,390 nM
CCCCc1ccc(-c2ccc(C(=O)N[C@@H](CN)C(=O)N[C@@H](CCC(=O)N[C@H](C)C(=O)O)C(=O)N[C@@H](C)C(=O)N[C@@H](CCCCN)C(=O)N[C@@H](C)B3O[C@@H]4C[C@@H]5C[C@@H](C5(C)C)[C@]4(C)O3)cc2)cc1 [Compound 260] ({Biphenylcarbonyl(4'-Bu)}-[Dap]E(dA)AK-{boroAla((+)-pinanediol)}),4 µg/mL,1 µg/mL,83 nM,5.6 nM
CCCCc1ccc(-c2ccc(C(=O)NCCC(=O)N[C@@H](CCCCN)C(=O)N[C@H](C(=O)N[C@@H](C)C(=O)N[C@H](C(=O)N[C@@H](C)B3O[C@@H]4C[C@@H]5C[C@@H](C5(C)C)[C@]4(C)O3)C(C)C)[C@@H](C)O)cc2)cc1 [Compound 194] ({Biphenylcarbonyl(4'-Bu)-βAla}-KTAV-{boroAla((+)-pinanediol)}),0.71 µg/mL,6.3 µg/mL,4.7 nM,16 nM
CCCCCCCCc1ccc(C(=O)N[C@@H](CCN)C(=O)N[C@H](C(=O)N[C@@H](C)C(=O)N[C@@H](CCCCN)C(=O)N[C@@H](C)B2OC3C[C@@H]4C[C@@H](C4(C)C)[C@]3(C)O2)[C@@H](C)O)cc1 (some centres unmarked) [Compound 232] ({Benzoyl(4-octyl)}-[Dab]TAK-X1),0.31 µg/mL,0.25 µg/mL,140 nM,5 nM
C[C@H](NC(=O)[C@H](CCCCN)NC(=O)[C@H](C)NC(=O)[C@H](CCCCN)NC(=O)[C@H](CN)NC(=O)c1ccc(-c2ccc(Cl)cc2)cc1)B(O)O [Compound 180] ({Benzoyl(4-(4-Cl-Ph))}-[Dap]KAK-boroAla),1 µg/mL,1 µg/mL,280 nM,11 nM
CCCCc1ccc(-c2ccc(CC(=O)N[C@@H](CCN)C(=O)N[C@H](C(=O)N[C@@H](C)C(=O)N[C@@H](CCCCN)C(=O)N[C@@H](C)B3OC4C[C@@H]5C[C@@H](C5(C)C)[C@]4(C)O3)[C@@H](C)O)cc2)cc1 (some centres unmarked) [Compound 243],0.5 µg/mL,2 µg/mL,80 nM,10 nM
CCCCc1ccc(-c2ccc(C(=O)N[C@@H](CCCCN)C(=O)N[C@H](C(=O)N[C@H](C(=O)N[C@@H](CCCCN)C(=O)N[C@@H](C)B(O)O)C3CC3)C(C)O)cc2)cc1 (some centres unmarked) [Compound 147] ({Biphenylcarbonyl(4'-Bu)}-K[Thr(3ξ)][Gly(cPr)]K-boroAla),0.25 µg/mL,0.31 µg/mL,98 nM,14 nM
CCCCc1ccc(-c2ccc(C(=O)N[C@@H](CCN)C(=O)N[C@H](C(=O)N[C@@H](C)C(=O)N[C@@H](CCCCN)C(=O)N[C@@H](C)B3OC4C[C@@H]5C[C@@H](C5(C)C)[C@]4(C)O3)C(C)O)cc2)cc1 (some centres unmarked) [Compound 148] ({Biphenylcarbonyl(4'-Bu)}-[Dab][Thr(3ξ)]AK-X1),0.23 µg/mL,0.4 µg/mL,140 nM,7.4 nM
CCCCc1ccc(Nc2ccc(C(=O)N[C@@H](CCN)C(=O)N[C@H](C(=O)N[C@@H](C)C(=O)N[C@@H](CCCCN)C(=O)N[C@@H](C)B3OC4C[C@@H]5C[C@@H](C5(C)C)[C@]4(C)O3)[C@@H](C)O)cc2)cc1 (some centres unmarked) [Compound 249],0.35 µg/mL,1 µg/mL,160 nM,17 nM
CCCCc1ccc(-c2ccc(C(=O)NCCC(=O)N[C@@H](CCCCN)C(=O)N[C@H](C(=O)N[C@@H](C)C(=O)N[C@@H](Cc3ccc(O)cc3)C(=O)N[C@@H](C)B3OC4C[C@@H]5C[C@@H](C5(C)C)[C@]4(C)O3)[C@@H](C)O)cc2)cc1 (some centres unmarked) [Compound 225] ({Biphenylcarbonyl(4'-Bu)-βAla}-KTAY-X1),0.57 µg/mL,2 µg/mL,4 nM,7.1 nM
C[C@H](NC(=O)[C@H](CCCCN)NC(=O)[C@H](C)NC(=O)[C@@H](NC(=O)[C@H](CCN)NC(=O)CCCCC12CC3CC(CC(C3)C1)C2)[C@@H](C)O)B1OC2C[C@@H]3C[C@@H](C3(C)C)[C@]2(C)O1 (some centres unmarked) [Compound 239] (X19-[Dab]TAK-X1),0.71 µg/mL,2 µg/mL,670 nM,17 nM
CCCCc1ccc(-c2ccc(C(=O)N[C@@H](CN)C(=O)N[C@H](C(=O)N[C@@H](C)C(=O)N[C@@H](CCCCN)C(=O)N[C@@H](C)B(O)O)[C@@H](C)O)cc2)cc1 [Compound 162] ({Biphenylcarbonyl(4'-Bu)}-[Dap]TAK-boroAla),0.4 µg/mL,0.5 µg/mL,200 nM,12 nM
CCCCc1ccc(-c2ccc(C(=O)N[C@@H](CCN)C(=O)N[C@H](C(=O)N[C@@H](C)C(=O)N[C@@H](CCCCN)C(=O)N[C@@H](C)B3OC4C[C@@H]5C[C@@H](C5(C)C)[C@]4(C)O3)[C@@H](C)O)cn2)cc1 (some centres unmarked) [Compound 234],0.4 µg/mL,0.5 µg/mL,53 nM,8.3 nM
C[C@H](NC(=O)[C@H](CCCCN)NC(=O)[C@H](C)NC(=O)[C@@H](NC(=O)[C@H](CN)NC(=O)c1ccc(-c2ccc(Cl)cc2)cc1)[C@@H](C)O)B1OC2C[C@@H]3C[C@@H](C3(C)C)[C@]2(C)O1 (some centres unmarked) [Compound 167] ({Benzoyl(4-(4-Cl-Ph))}-[Dap]TAK-X1),1.7 µg/mL,4 µg/mL,190 nM,5.2 nM
